From patent publication US5527785A, “Selectin receptor modulating compositions” (The Regents of the University of California, priority 1993, dated 1996)

What was measured:
P-selectin-Ig [1] = test: LS180 colon cancer cell adhesion to immobilized P-selectin-Ig; format: cell-based; settings: FIG. 5
Method: (§1) The colon carcinoma cell line, LS180, is a useful model for studying selectin-dependent adhesion since it binds to all three selectins. E-, P-, and L-selectin-Ig were immobilized on microwell (Terasaki) plates coated with protein A. Five μl of buffer containing crude heparin, di-, tetra- or hexasaccharide heparin fragments or antibody (as described above) was incubated for 20 minutes at 4° C. Five μl containing 5000 LS180 cells was added for 30 minutes at 4° C. to allow adhesion to occur. The wells were then washed, fixed with glutaraldehyde, and the bound cells counted by microscopic observation.

L-selectin-Ig [2] = test: Competition ELISA, L-selectin-Ig binding to BSA-sLe^x; settings: for inhibition of L-selectin-Ig binding to BSA-sLe^x (in words): competitive ELISA, FIG. 8
P-selectin [3] = test: HL60 cell adhesion to COS cells transfected with P-selectin cDNA; format: cell-based; settings: at the concentrations tested in these adhesion assays (HL60 and PMN to selectin-transfected COS)
Method: COS cells were grown on coverslips in Dulbecco's minimal essential media with 10% fetal calf serum. After 72 hours, polysaccharides were added to the COS cell cultures to achieve final concentrations of 0, 0.1, 1.0, 10.0, 100.0 or 1000.0 μg/ml. Polysaccharides included crude heparin, dermatan sulfate, heparin tetrasaccharide, and heparin hexasaccharide. HL60 cells, a leukocytic cell line, were added to the COS cell cultures 30 minutes after the polysaccharides were added and incubated for 30 minutes. The coverslips were then washed with media to remove unbound cells and COS cells with three or more HL60 cells bound (rosettes) were counted using phase contrast microscopy.
Briefly, subconfluent monolayers were incubated at 37° C. for 2.5 hours with Dulbecco's modified Eagle's medium (DMEM) with 10% NuSerum (Collaborative Research, Bedford, Mass.) containing 10 μg cDNA, 400 μg/mL DEAE-dextran (Sigma), and 100 μM chloroquine diphosphate (Sigma). […] HL60 cell adhesion was quantitated as number of HL60 rosettes (2 or more cells bound) per 100 transfected COS cells. Number of transfected COS was determined using mAbs specific for E-, P-, and L-selectin (see below) followed by secondary reaction with a fluorescein-conjugated anti-immunoglobulin antibody (Cappel, Durham, N.C.). […]

P-selectin-Ig [4] = test: Competition ELISA, P-selectin-Ig binding to BSA-sLe^x; settings: Table 1, P-selectin; approximate IC50 values
Method: (§2) Briefly, microtiter plates were coated with neoglycoprotein BSA-sLe^x, BSA-sLe^a, (Chembiomed, Alberta, CAN) or unconjugated BSA (0.11 μg/well) in 50 mM carbonate bicarbonate buffer, pH 9.5. Plates were blocked with 20 mg/ml BSA in ELISA buffer (150 mM NaCl, 20 mM HEPES, 2 mM CaCl2, 0.25 mM thimerosal, pH 7.4). E- and P-selectin-Ig fusion proteins (20 nM) were coincubated in the coated, blocked microtiter wells with serially diluted heparin fragments (typically 0-1000 μg/ml) in ELISA buffer containing 10 mg/ml BSA for three hours at room temperature. […] Color development was stopped in the linear range (typically after 4-16 minutes) using 5 μl 4 NH2 SO4, and endpoint optical density measured at 490 nm.

E-selectin-Ig [5] = test: LS180 colon cancer cell adhesion to immobilized E-selectin-Ig; format: cell-based; settings: FIG. 5
Method: as §1

L-selectin-Ig [6] = test: LS180 colon cancer cell adhesion to immobilized L-selectin-Ig; format: cell-based; settings: FIG. 5
Method: as §1

E-selectin-Ig [7] = test: Competition ELISA, E-selectin-Ig binding to BSA-sLe^x
Method: as §2

P-selectin [8] = settings: Larsen, et al.; cited from earlier work
L-selectin-Ig [9] = settings: 5 mM; cited from earlier work
L-selectin-Ig [10] = settings: 11 mM; cited from earlier work
L-selectin-Ig [11] = settings: Table 1, L-selectin; footnote: Foxall, et al., supra; cited from earlier work

O=C(O)C1=C[C@H](O)[C@@H](OS(=O)(=O)O)[C@H](O[C@H]2[C@H](O)[C@@H](NS(=O)(=O)O)C(O)O[C@@H]2COS(=O)(=O)O)O1 (some centres unmarked) [Di, UA2Sα1-4GIcNS6S]
adhesion of LS180 cells to plates coated with P-selectin-Ig (in words) (P-selectin-Ig [1]): no effect | IC50, inhibition of L-selectin-Ig binding to BSA-sLe^x (L-selectin-Ig [2]; Table 1, L-selectin, approximate IC50 values): > 1000 µg/mL | inhibition of L-selectin-Ig binding to BSA-sLe^x (in words) (L-selectin-Ig [2]; listed as tris-sulfated heparin disaccharide): some inhibition | inhibition of L-selectin-Ig binding to BSA-sLe^x (in words) (L-selectin-Ig [2]; listed as trisulfated disaccharide fragment of heparin): somewhat effective | blocking activity in the COS cell adhesion assays (in words) (P-selectin [3]): little blocking activity | IC50, inhibition of P-selectin-Ig binding to BSA-sLe^x (P-selectin-Ig [4]): > 1000 µg/mL | adhesion of LS180 cells to plates coated with E-selectin-Ig (in words) (E-selectin-Ig [5]): no effect | adhesion of LS180 cells to plates coated with L-selectin-Ig (in words) (L-selectin-Ig [6]): no effect

O=C(O)C1=C[C@H](O)[C@@H](OS(=O)(=O)O)[C@H](O[C@H]2[C@H](O)[C@@H](NS(=O)(=O)O)[C@@H](O[C@H]3[C@H](O)[C@@H](OS(=O)(=O)O)[C@H](O[C@H]4[C@H](O)[C@@H](NS(=O)(=O)O)C(O)O[C@@H]4COS(=O)(=O)O)O[C@H]3C(=O)O)O[C@@H]2COS(=O)(=O)O)O1 (some centres unmarked) [F4, ΔUA2Sα1-4DGIcNS6Sα1-4LIdoA2Sα1-4DGIcNS6S]
IC50, inhibition of L-selectin-Ig (L-selectin-Ig [2]; competition ELISA, FIG. 12): 61 µg/mL | IC50 (L-selectin-Ig [2]; competition ELISA, FIG. 12, read-out: IC50, inhibition of L-selectin-Ig): 46 µM | activity relative to the size fractionated tetrasaccharide mixture (L-selectin-Ig [2]; competition ELISA, L-selectin-Ig): 2-4 fold | activity against L-selectin relative to sLe^x in non-cellular assays (L-selectin-Ig [2]; non-cellular assays, F4 vs sLe^x): over 100 fold | activity against E-selectin-Ig (in words) (E-selectin-Ig [7]; concentrations up to 1 mM): no activity

CC(=O)N[C@H]1[C@H](O[C@H]2[C@@H](O)[C@@H](CO)O[C@@H](O[C@H]3[C@H](O)[C@@H](O)C(O)O[C@@H]3CO)[C@@H]2O)O[C@H](CO)[C@@H](O[C@@H]2O[C@H](CO)[C@H](O)[C@H](O)[C@H]2O)[C@@H]1O[C@@H]1O[C@@H](C)[C@@H](O)[C@@H](O)[C@@H]1O (some centres unmarked) [LNF-III]
P-selectin-dependent rosetting of activated platelets to leukocytes (in words) (P-selectin [8]): blocked

CC(=O)NC1C(O)CC(OC2C(O)C(CO)OC(OC3C(CO)OC(O)C(NC(C)=O)C3OC3OC(C)C(O)C(O)C3O)C2O)(C(=O)O)OC1C(O)C(O)CO (centres unmarked) [sLex, Neu5Acα2-3Galβ1-4(Fucα1-3)GIcNAc, reference compound]
activity against L-selectin-Ig binding (in words) (L-selectin-Ig [2]; concentrations of up to 1 mM): no measurable activity | block of L-selectin-Ig binding to immobilized sLe^x glycolipid (L-selectin-Ig [9]): approximately 50% | IC50, inhibition of P-selectin-Ig binding to BSA-sLe^x (P-selectin-Ig [4]): > 1000 µg/mL | block of L-selectin-Ig binding to glycam-1 (L-selectin-Ig [10]): approximately 60% | IC50, inhibition of L-selectin-Ig binding (L-selectin-Ig [11]): 4100 µg/mL | IC50 (E-selectin-Ig [7]; read-out: IC50, E-selectin-Ig binding to immobilized BSA-sLe^x): 510 ± 60 µM
